For seven compounds, IC50 results are on record in ChEMBL document CHEMBL3856238, “Synthesis of novel nicotinohydrazide and (1,3,4-oxadiazol-2-yl)-6-(trifluoromethyl)pyridine derivatives as potential anticancer agents” (Bioorg Med Chem Lett, 2016).

Common to all, as to type: functional, cell-based
Test [1] is described as follows: Cytotoxicity against human HepG2 cells assessed as cell growth inhibition by MTT assay. For orientation: Formazan colour is commonly taken as a measure of viable cells.
Test [2] is described as follows: Cytotoxicity against human HeLa cells assessed as cell growth inhibition by MTT assay.
A short description of test [3]: Cytotoxicity against human DU145 cells assessed as cell growth inhibition by MTT assay. Conditions: DU-145.
A short description of test [4]: Cytotoxicity against human MDA-MB-231 cells assessed as cell growth inhibition by MTT assay.

The IC50 is the concentration at which inhibition is half-maximal.

Each structure is given as a SMILES string.

On to `O=c1[nH]cc(F)c(=O)[nH]1` [FLUOROURACIL], for which the IC50 was 1.3 µM in test [1], 1.9 µM in test [2], 1.6 µM in test [3] and 1.8 µM in test [4].
In the same order, the values of `FC(F)(F)c1ccc(-c2nnc(-c3ccco3)o2)c(NCc2ccco2)n1` are 9.5 µM, 9.8 µM, 8.2 µM and 8.7 µM.
In the same order, the values of `CCc1nnc(-c2ccc(C(F)(F)F)nc2Nc2cccc(F)c2)o1` are 26.4 µM, 20.9 µM, 22.2 µM and 18.7 µM.
As for `O=C(N/N=C/c1ccccc1)c1ccc(C(F)(F)F)nc1NCc1ccco1`, the 50% inhibitory concentration (IC50) in test [1] was 32.2 µM; in test [2] it was 31.4 µM; in test [3] it was 30.5 µM; in test [4] it was 26.6 µM.
As to `CCCc1nnc(-c2ccc(C(F)(F)F)nc2Nc2cccc(F)c2)o1`, the IC50 in test [1] was determined as 17.7 µM; in test [2] it was 19.6 µM; in test [3], 18.9 µM; in test [4], 13.5 µM.
In the case of `COc1ccc(-c2nnc(-c3ccc(C(F)(F)F)nc3N)o2)cc1`, the IC50 in test [1] worked out at 11.2 µM; in test [2] it was 14.8 µM; in test [3], 10.7 µM; in test [4], 13.5 µM.
The like results for `CCc1nnc(-c2ccc(C(F)(F)F)nc2Nc2cc(OC)c(OC)c(OC)c2)o1` were, in that order, 19.9 µM, 23.3 µM, 22.1 µM and 20.5 µM.
